Where two headings read alike, the source gives them in different places.
What was measured:
human P2X3 receptor = human P2X3 receptor (Homo sapiens (Human), UniProt P56373); experiment: Evaluation of human P2X3 receptor inhibitory activity (FLIPR Ca fluorescence, ATP-evoked); format: cell-based; details: C6BU-1 cells stably expressing human P2X3 receptor
Procedure: Stably expressing cell line (C6BU-1 cell transfected with human P2X3 receptor gene (GenBank accession number Y07683) was used. The cells were seeded in a 384-well PDL-coated microtiter plate at a concentration of 3000 cells/well and cultured in the medium (8.3% fetal bovine serum, 8.3% horse serum, and 1% antibiotic and antifungal in DMEM) for one day at 37° C. under 5% carbon dioxide atmosphere. The medium was replaced with 4 μM Fluo-3-AM solution (20 mM HEPES, 137 mM NaCl, 2.7 mM KCl, 0.9 mM MgCl2, 5.0 mM CaCl2, 5.6 mM D-glucose, 2.5 mM probenecid, 0.5% BSA, and 0.04% Pluronic P-127, pH 7.5) and incubated at 37° C. under 5% dioxide carbon atmosphere for one hour. The plate was washed with washing buffer (20 mM HEPES, 137 mM NaCl, 2.7 mM KCl, 0.9 mM MgCl2, 5.0 mM CaCl2, 5.6 mM D-glucose, 2.5 mM probenecid, pH 7.5), and each well was added with 20 μL of the washing buffer. The plate was placed in High-Throughput Screening System FLIPR 384 (Molecular Device Co.). Measurement of fluorescence intensity by […] was started, and 20 μL of DMSO solutions containing different concentrations of the test compound as prepared by dilution with dilution buffer (20 mM HEPES, 137 mM NaCl, 2.7 mM KCl, 0.9 mM MgCl2, 5.0 mM CaCl2, 5.6 mM D-glucose, 2.5 mM probenecid, 0.1% Pluronic F-127, pH 7.5) were dispensed to each well through the built-in automatic dispenser. Five minutes after, 150 nM ATP solution (25 μL) prepared by dilution with the dilution buffer was dispensed through the built-in automatic dispenser, and the measurement of fluorescence intensity was continued for 4 min. For each well, the specific maximum fluorescence intensity was calculated as the ratio of the maximum fluorescence intensity after addition of the ATP solution to the fluorescence intensity at the starting of the measurement. […] The specific maximum fluorescence intensify and IC50 were calculated using Spotfire (Science & Technology Systems. Inc.)

[1] = Protein binding test (equilibrium dialysis, unbound fraction in serum); format: in vitro ADME; details: 37° C.
Procedure: The unbound fraction of the present compound in serum was measured using serum of various species.
The reactive conditions are as follows: Evaluation method, Equilibrium dialysis; Reaction time, 24 hours; Reaction temperature, 37° C.; Concentration of the present compound, 2 μg/mL
The test solution was added to each serum and the mixture was agitated to prepare the serum samples at the concentration mentioned above. Each serum sample was added into one side of the cell and phosphate buffered saline (PBS) was added into the other side to perform equilibrium dialysis at 37° C. for 24 hours. Then, the concentration of the compounds in the samples that were obtained from both sides was measured by LC/MS/MS.
The ratio of PBS concentration to serum concentration is expressed as unbound fraction (fu),

[2] = Solubility test (1% DMSO, artificial intestinal juice pH 6.8); format: physicochemical; details: artificial intestinal juice pH 6.8 with 1% DMSO, 25 °C, fassgf or other biorelevant, kinetic from dmso stock, artificial intestinal juice pH 6.8, 25 degrees Celsius, read-out: Solubulity
Rat P2X3 receptor = Rat P2X3 receptor (Rattus norvegicus (Rat), UniProt P49654); experiment: Evaluation of rat P2X3 receptor inhibitory activity in the presence of rat serum albumin (RSA); format: cell-based; details: read-out: ratP2X3 + RSA IC50
Procedure: Rat P2X3 receptor gene (GenBank accession number NM_031075) was expressed in C6BU-1 cell. The C6BU-1 cells were seeded in a 96-well micro titer plate at a concentration of 2500 cells/well and cultured in the medium (7.0% fetal bovine serum, 7.0% horse serum, and 1% antibiotic and antifungal in DMEM) for one day at 37° C. under 5% carbon dioxide atmosphere. The plasmid was transfected into the cells using transfection reagent FuGENE6 (Promega). The transfected cells were cultured in the medium for one day at 37° C. under 5% carbon dioxide atmosphere. The medium was replaced with 4 μM Fluo-4-AM solution (pH 7.5) containing 20 mM HEPES, 137 mM NaCl, 5.27 mM KCl, 0.9 mM MgCl2, 1.26 mM CaCl2, 5.6 mM D-glucose, 2.5 mM probenecid, 10% RSA, and 0.08% Pluronic F-127, and incubated at 37° C. under 5% dioxide carbon atmosphere for one hour. The plate was washed with washing buffer (20 mM HEPES, 137 mM NaCl, 5.27 mM KCl, 0.9 mM MgCl2, 1.26 mM CaCl2, 5.6 mM D-glucose, 2.5 mM probenecid, pH 7.5), and each well was added with 40 μL of this buffer. The plate was placed in High-Throughput Screening System FDSS 3000 (Hamamatsu Photonics K.K.). Measurement of fluorescence intensity by FDSS 3000 was started, and 40 μL of DMSO solutions containing 1% RSA (final concentrations) and different concentrations of the test compound as prepared by dilution with dilution buffer (20 mM HEPES, 137 mM NaCl, 5.27 mM KCl, 0.9 mM MgCl2, 1.26 mM CaCl2, 5.6 mM D-glucose, 2.5 mM probenecid, 0.1% Pluronic F-127, pH 7.5) were dispensed to each well through the built-in automatic dispenser. Five minutes after, 50 nM ATP solution (50 μL) prepared by dilution with the dilution buffer was dispensed through the built-in automatic dispenser, and the measurement of fluorescence intensity was continued for 4 min. For each well, the specific maximum fluorescence intensity was calculated as the ratio of the maximum fluorescence intensity after addition of the ATP solution to the fluorescence intensity at the starting of the measurement. […] FDSS software (Hamamatsu Photonics K.K.) was used for calculation of the specific maximum fluorescence intensity. IC50 was calculated using Microsoft Excel (Microsoft Corporation) and XLfit (idbs Ltd.).

[3] = Pharmacokinetic test (BA, CLtot); format: in vivo; details: rat, plasma, SD rats
Procedure: • (1) Animals: SD rats were used • (2) Breeding conditions: SD rats were allowed to freely take solid food and sterilized tap water. • (3) Dose and grouping: orally or intravenously administered at a predetermined dose; grouping was as follows (Dose depends on the compound)
Oral administration: 1 mg/kg (n=2)
The total body clearance (CLtot) was calculated by dividing the dose by the AUC of the intravenous administration group.

Sequence of Rat P2X3 receptor (P49654 whole entry): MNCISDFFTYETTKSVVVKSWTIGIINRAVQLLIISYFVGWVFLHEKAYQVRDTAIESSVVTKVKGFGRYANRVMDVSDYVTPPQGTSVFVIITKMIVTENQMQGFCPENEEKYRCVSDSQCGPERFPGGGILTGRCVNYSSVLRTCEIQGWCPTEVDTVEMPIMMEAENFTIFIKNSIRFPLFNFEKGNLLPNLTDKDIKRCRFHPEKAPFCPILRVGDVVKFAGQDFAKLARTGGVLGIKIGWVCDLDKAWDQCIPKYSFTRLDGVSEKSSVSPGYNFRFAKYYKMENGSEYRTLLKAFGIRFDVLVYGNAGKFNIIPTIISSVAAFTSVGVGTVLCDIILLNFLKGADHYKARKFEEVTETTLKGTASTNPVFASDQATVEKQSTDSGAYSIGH
Sequence of human P2X3 receptor (P56373 whole entry): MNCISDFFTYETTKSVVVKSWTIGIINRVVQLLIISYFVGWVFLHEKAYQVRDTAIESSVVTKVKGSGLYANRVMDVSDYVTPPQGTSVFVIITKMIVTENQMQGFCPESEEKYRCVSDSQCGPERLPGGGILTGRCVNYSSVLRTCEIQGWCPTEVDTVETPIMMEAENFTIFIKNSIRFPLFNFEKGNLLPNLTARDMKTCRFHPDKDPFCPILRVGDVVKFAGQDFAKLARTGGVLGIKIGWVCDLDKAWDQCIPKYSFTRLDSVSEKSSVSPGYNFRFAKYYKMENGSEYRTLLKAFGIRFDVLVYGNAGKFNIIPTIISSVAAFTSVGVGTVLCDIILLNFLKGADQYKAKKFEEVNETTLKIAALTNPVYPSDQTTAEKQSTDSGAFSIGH

SMILES: Cc1ccc(Cn2c(=O)n(C[C@H](C)C(=O)O)c(=O)[nH]/c2=N\c2ccc(Oc3ccc(F)cn3)cc2)cc1 [Compound I-040]
- IC50 (human P2X3 receptor): 6 nM
- fraction unbound at 24 h, 2 μg/mL [1]: 0.035
- solubility at 18 h [2]: > 50 µM
- IC50 (Rat P2X3 receptor): 9 nM
- clearance ([3]; intravenous administration 0.5 mg/kg): 28.6 mL/min/kg
- AUC ([3]; intravenous administration 0.5 mg/kg, read-out: AUC (iv)): 291 ng·h/mL
- AUC ([3]; oral administration 1 mg/kg, read-out: AUC (po)): 410 ng·h/mL

— US9732060B2, “Aminotriazine derivative and pharmaceutical composition comprising the same” (Shionogi & Co., Ltd., priority 2013, dated 2017)
